For 13 molecules, IC50 results are on record in ChEMBL document CHEMBL1130973, “Synthesis and biological evaluation of 3-arylisoquinolines as antitumor agents” (Bioorg Med Chem Lett, 1998).

Molecules are shown by their SMILES.

In one assay the test system is SK-OV-3. The experiment in a line: In vitro cytotoxicity against SKOV-3 (human ovarian) tumor cell line. In kind it is functional, cell-based. To be noted: Homo sapiens, SK-OV-3.
Turning to `Oc1nc(-c2ccccc2)cc2ccccc12`, the IC50 (commonly the point on the concentration scale where inhibition reaches its midpoint) came out at 2.45 µM.

In turn, `Cc1ccc2c(O)nc(-c3ccccc3C)cc2c1` gave a concentration for half-maximal inhibition (IC50) of 4.27 µM.

Turning to `CN1CCN(c2nc(-c3ccc(Cl)cc3)cc3c(N(C)C)cccc23)CC1`, the half-inhibitory concentration (IC50) is 7.56 µM.

The molecule `Cc1ccc(-c2cc3ccccc3c(O)n2)cc1` gave an IC50 of 13.8 µM.

The molecule `COc1ccc2c(c[n+](C)c3c4cc5c(cc4ccc23)OCO5)c1O` [FAGARIDINE] returned a half-inhibitory concentration (IC50) of 1.35 µM.

The test system of a further assay is SK-MEL-2. The experiment in a line: In vitro cytotoxicity against SK-MEL-2 (human melanoma) tumor cell line. The format is functional, cell-based. To be noted: Homo sapiens, SK-MEL-2.
As to `Oc1nc(-c2ccccc2)cc2ccccc12`, the IC50 stood at 2.57 µM.

`Cc1ccc2c(O)nc(-c3ccccc3C)cc2c1` came in with a concentration for half-maximal inhibition (IC50) of 2.63 µM.

In turn, `CN1CCN(c2nc(-c3ccc(Cl)cc3)cc3c(N(C)C)cccc23)CC1` displayed an IC50 of 4.3 µM.

Take `Cc1ccc(-c2cc3ccccc3c(O)n2)cc1`: the 50% inhibitory concentration (IC50) worked out at 5.01 µM.

`COc1ccc2c(c[n+](C)c3c4cc5c(cc4ccc23)OCO5)c1O` [FAGARIDINE] came in with an IC50 of 2.75 µM.

A further assay deals with A549. Briefly: Tested for in vitro cytotoxicity against A 549 (human lung) tumor cell line using sulforhodamine B (SRB) assay. In kind it is functional, cell-based.
Conditions: not given
(Sulforhodamine B stains cellular protein and so reports cell mass.)
`Cc1ccc2c(O)nc(-c3ccc(Cl)cc3)cc2c1` showed a concentration for half-maximal inhibition (IC50) of 5.75 µM.

The assay is the same for the next values; noted with them: Homo sapiens, A549.
Molecule `Oc1nc(-c2ccccc2)cc2ccccc12` gave a 50% inhibitory concentration (IC50) of 5.75 µM.

`Cc1ccc2c(O)nc(-c3ccccc3C)cc2c1` registered an IC50 of 5.89 µM.

With `CN1CCN(c2nc(-c3ccc(Cl)cc3)cc3c(N(C)C)cccc23)CC1`, the half-inhibitory concentration (IC50) was 7.45 µM.

For `Cc1ccc(-c2cc3ccccc3c(O)n2)cc1`, the midpoint of inhibition, the IC50, lay at 30.2 µM.

`COc1ccc2c(c[n+](C)c3c4cc5c(cc4ccc23)OCO5)c1O` [FAGARIDINE]: inhibition was half-maximal at 1.02 µM (IC50).

For the next assay, the system named is HCT-15 (Homo sapiens). Briefly: In vitro cytotoxicity against HCT 15 (human colon) tumor cell line.
Conditions: not given
`Oc1nc(-c2ccccc2)cc2ccccc12` gave an IC50 of 1.38 µM.

`Cc1ccc2c(O)nc(-c3ccccc3C)cc2c1` came in with an IC50 of 1.99 µM.

Regarding `CN1CCN(c2nc(-c3ccc(Cl)cc3)cc3c(N(C)C)cccc23)CC1`, the midpoint of inhibition, the IC50, lay at 7.3 µM.

On to `Cc1ccc(-c2cc3ccccc3c(O)n2)cc1`, for which the IC50 came to 7.08 µM.

Turning to `COc1ccc2c(c[n+](C)c3c4cc5c(cc4ccc23)OCO5)c1O` [FAGARIDINE], half-maximal inhibition (IC50) was put at 1.12 µM.

For the next assay, the system named is HCT-15. Briefly: Tested for in vitro cytotoxicity against HCT 15 (human colon) tumor cell line using sulforhodamine B (SRB) assay; not active (> 100 uM). In kind it is functional, cell-based.
Conditions: not given
Regarding `CN(C)c1cccc2c(O)nc(-c3ccc(Br)cc3)cc12`, the concentration for half-maximal inhibition (IC50) entry is on record as “Not Active”.

Consider `CN(C)c1cccc2c(O)nc(-c3ccccc3)cc12`, for which the half-maximal inhibitory concentration (IC50) entry is “Not Active”.

`Sc1nc(-c2ccccc2)cc2ccccc12`: the half-maximal inhibitory concentration (IC50) entry is listed as “Not Active”.

Turning to `Cc1ccc(-c2cc3c(N(C)C)cccc3c(O)n2)cc1`, the half-maximal inhibitory concentration (IC50) result was “Not Active”.

Regarding `COc1ccc(-c2cc3c(N(C)C)cccc3c(O)n2)cc1`, the IC50 result is “Not Active”.

In a further assay the test system is SK-MEL-2. The experiment in a line: Tested for in vitro cytotoxicity against SK-MEL-2 (human melanoma) tumor cell line using sulforhodamine B (SRB) assay. In kind it is functional, cell-based.
Conditions: not given
The molecule `Cc1ccc2c(O)nc(-c3ccc(Cl)cc3)cc2c1` returned an IC50 of 6.31 µM.

The test system of another assay is XF498 (Homo sapiens). Briefly: In vitro cytotoxicity against XF498 (human CNS) tumor cell line.
Conditions: not given
Molecule `COc1ccc(-c2cc3ccccc3c(S)n2)cc1` gave an IC50 of 83.2 µM.

Molecule `Oc1nc(-c2ccccc2)cc2ccccc12` displayed a half-inhibitory concentration (IC50) of 5.89 µM.

In turn, `Cc1ccc2c(O)nc(-c3ccccc3C)cc2c1` yielded an IC50 of 30.9 µM.

Regarding `CN1CCN(c2nc(-c3ccc(Cl)cc3)cc3c(N(C)C)cccc23)CC1`, the midpoint of inhibition, the IC50, lay at 7.98 µM.

Molecule `Cc1ccc(-c2cc3ccccc3c(O)n2)cc1` gave an IC50 of 42.7 µM.

For `COc1ccc2c(c[n+](C)c3c4cc5c(cc4ccc23)OCO5)c1O` [FAGARIDINE], half-maximal inhibition (IC50) required 1.12 µM.

The subject of a further assay is XF498. Briefly: Tested for in vitro cytotoxicity against XF498 (human CNS) tumor cell line using sulforhodamine B (SRB) assay. In kind it is functional, cell-based.
Conditions: not given
Molecule `Cc1ccc2c(O)nc(-c3ccc(Cl)cc3)cc2c1` showed a 50% inhibitory concentration (IC50) of 11.2 µM.

In a further assay the test system is SK-OV-3. The experiment in a line: Tested for in vitro cytotoxicity against SKOV-3 (human ovarian) tumor cell line using sulforhodamine B (SRB) assay. The format is functional, cell-based.
Conditions: not given
`Cc1ccc2c(O)nc(-c3ccc(Cl)cc3)cc2c1` had an IC50 of 6.03 µM.

A further assay has as its system A549. The experiment in a line: Tested for in vitro cytotoxicity against A 549 (human lung) tumor cell line using sulforhodamine B (SRB) assay; not active (> 100 uM).
Conditions: not given
In kind it is functional, cell-based.
In the case of `CN(C)c1cccc2c(O)nc(-c3ccc(Br)cc3)cc12`, the IC50 result was “Not Active”.

For `CN(C)c1cccc2c(O)nc(-c3ccccc3)cc12`, the IC50 result is “Not Active”.

In the case of `COc1ccc(-c2cc3ccccc3c(S)n2)cc1`, the 50% inhibitory concentration (IC50) result is listed as “Not Active”.

For the molecule `Sc1nc(-c2ccccc2)cc2ccccc12`, the half-inhibitory concentration (IC50) result is “Not Active”.

For the molecule `Cc1ccc(-c2cc3c(N(C)C)cccc3c(O)n2)cc1`, the 50% inhibitory concentration (IC50) result is reported as “Not Active”.

As for `COc1ccc(-c2cc3c(N(C)C)cccc3c(O)n2)cc1`, the IC50 result was “Not Active”.

A further assay has as its system HCT-15 (Homo sapiens). The experiment in a line: Tested for in vitro cytotoxicity against HCT 15 (human colon) tumor cell line using sulforhodamine B (SRB) assay; not active (> 100 uM).
Conditions: not given
Consider `CN(C)c1cccc2c(O)nc(-c3ccc(Br)cc3)cc12`, for which the half-inhibitory concentration (IC50) entry is recorded as “Not Active”.

Consider `CN(C)c1cccc2c(O)nc(-c3ccccc3)cc12`, for which the IC50 result is “Not Active”.

`COc1ccc(-c2cc3ccccc3c(S)n2)cc1`: the half-inhibitory concentration (IC50) result is “Not Active”.

Regarding `Sc1nc(-c2ccccc2)cc2ccccc12`, the half-maximal inhibitory concentration (IC50) entry is recorded as “Not Active”.

In the case of `Cc1ccc(-c2cc3c(N(C)C)cccc3c(O)n2)cc1`, the 50% inhibitory concentration (IC50) entry is reported as “Not Active”.

In the case of `COc1ccc(-c2cc3c(N(C)C)cccc3c(O)n2)cc1`, the IC50 entry is reported as “Not Active”.

The subject of another assay is SK-MEL-2. The experiment in a line: Tested for in vitro cytotoxicity against SK-MEL-2 (human melanoma) tumor cell line using sulforhodamine B (SRB) assay; not active (> 100 uM). In kind it is functional, cell-based.
Conditions: not given
Consider `CN(C)c1cccc2c(O)nc(-c3ccc(Br)cc3)cc12`, for which the 50% inhibitory concentration (IC50) entry is “Not Active”.

With `CN(C)c1cccc2c(O)nc(-c3ccccc3)cc12`, the 50% inhibitory concentration (IC50) result was “Not Active”.

In the case of `COc1ccc(-c2cc3ccccc3c(S)n2)cc1`, the half-inhibitory concentration (IC50) entry is given as “Not Active”.

As for `Sc1nc(-c2ccccc2)cc2ccccc12`, the 50% inhibitory concentration (IC50) entry is reported as “Not Active”.

For `Cc1ccc(-c2cc3c(N(C)C)cccc3c(O)n2)cc1`, the IC50 entry was “Not Active”.

For `COc1ccc(-c2cc3c(N(C)C)cccc3c(O)n2)cc1`, the half-inhibitory concentration (IC50) entry is “Not Active”.

The subject of a further assay is SK-OV-3. The experiment in a line: Tested for in vitro cytotoxicity against SKOV-3 (human ovarian) tumor cell line using sulforhodamine B (SRB) assay; not active (> 100 uM).
Conditions: not given
The format is functional, cell-based.
Consider `CN(C)c1cccc2c(O)nc(-c3ccc(Br)cc3)cc12`, for which the half-inhibitory concentration (IC50) entry is “Not Active”.

Take `CN(C)c1cccc2c(O)nc(-c3ccccc3)cc12`: the IC50 result is listed as “Not Active”.

Turning to `COc1ccc(-c2cc3ccccc3c(S)n2)cc1`, the half-inhibitory concentration (IC50) result is “Not Active”.

As for `Sc1nc(-c2ccccc2)cc2ccccc12`, the IC50 result is “Not Active”.

With `Cc1ccc(-c2cc3c(N(C)C)cccc3c(O)n2)cc1`, the IC50 result is reported as “Not Active”.

On to `COc1ccc(-c2cc3c(N(C)C)cccc3c(O)n2)cc1`, for which the half-maximal inhibitory concentration (IC50) result was “Not Active”.

For another assay, the system named is SK-MEL-2. The experiment in a line: Tested for inhibitory activity against SK-MEL-2 (human melanoma) tumor cell line.
Conditions: not given
The format is functional, cell-based.
Regarding `C=Cc1cc2c(cc1-c1cc3ccc(OC)c(OC)c3c(=O)n1C)OCO2`, the 50% inhibitory concentration (IC50) was found to be 0.0002 µM.

Another assay deals with HCT-15. The experiment in a line: Tested for in vitro cytotoxicity against HCT 15 (human colon) tumor cell line using sulforhodamine B (SRB) assay. In kind it is functional, cell-based.
Conditions: not given
Molecule `Cc1ccc2c(O)nc(-c3ccc(Cl)cc3)cc2c1` came in with a concentration for half-maximal inhibition (IC50) of 11.2 µM.
